Assay results from publication PMC5874699, “Antimicrobial and Antibiofilm Activity of UP-5, an Ultrashort Antimicrobial Peptide Designed Using Only Arginine and Biphenylalanine” (Pharmaceuticals, 2018).
Square brackets hold non-standard residues; d marks the D form. Peptide text beside a SMILES is read from it. Bip = N[C@@H](Cc1ccc(-c2ccccc2)cc1)C(=O)O

Legend:
[1] = system: Enterococcus faecalis (ATCC BAA-2316); format: cell-based; settings: ATCC BAA-2316, 24 h
Source text: (§1) All bacterial susceptibility, biofilm, and synergistic assays of peptides, antibiotics, and peptides-antibiotics combinations used bacterial strains obtained from the American Type Tissue Culture Collection (ATCC, Manassas, VA, USA) that states the mechanism of resistance for each strain according to ATCC number. Gram-positive bacteria were represented by five strains, the wild type strain Staphylococcus aureus (ATCC 29213) and methicillin-resistant S. aureus (MRSA) (ATCC 33591) in addition to clinically isolated strains S. aureus (ATCC BAA-41& 43300) and Enterococcus faecalis (ATCC BAA-2316). The Gram-negative bacteria strains were represented by wild type strains of Escherichia coli (ATCC 25922 & 35218) and Pseudomonas aeruginosa (ATCC 27853) as well as the clinically isolated multidrug-resistant strain P. aeruginosa (ATCC BAA-2114). The bacteria were cultured onto Muller Hinton Agar (Scharlab, S.L, Barcelona, Spain). Mueller Hinton Broth (Oxoid Ltd., Basingstoke, UK) was used to prepare all bacterial suspensions and to dissolve the peptides and the antibiotics. The assay was performed in sterile 96-well polypropylene microtiter plates.
(§2) All bacterial susceptibility assays were conducted according to the microbroth dilution method outlined by the Clinical and Laboratory Standards Institute (CLSI) guidelines.
(§3) Briefly, pre-sterilized MHB was used as a growth medium for organisms obtained from stock media with glycerol. Bacterial cells were grown overnight in MHB and diluted to 10^6 CFU/mL in the same medium prior to use. For peptide, serial concentrations in the range of 0.5–100 μM were prepared. Then, 50 μL of each peptide concentration and 50 µL of diluted bacterial suspension were added to each well of a 96-well microtiter plate. Peptide solutions were prepared by dissolving the peptide in sterile MHB. Then, the plates were incubated overnight in a humidified atmosphere, and at 37 °C. Bacterial growth was determined by measuring the optical density (OD) at λ = 600 nm using an ELISA plate reader (Epoch, BioTek, Winooski, VT, USA) and the minimum inhibitory concentration (MIC) was determined.

[2] = system: Escherichia coli (ATCC 25922); format: cell-based; settings: ATCC 25922, 24 h
Source text: as §1, §2, §3

[3] = system: Escherichia coli (ATCC 35218); format: cell-based; settings: ATCC 35218, 24 h
Source text: as §1, §2, §3

[4] = system: Pseudomonas aeruginosa (ATCC 27853); format: cell-based; settings: ATCC 27853, 24 h
Source text: as §1, §2, §3

[5] = system: P. aeruginosa (ATCC BAA-2114); assay: Broth microdilution checkerboard, UP-5 with antibiotics; format: cell-based, Pseudomonas aeruginosa; settings: P. auroginosa ATCC BAA-2114, checkerboard, triplicate
Source text: as §1
According to the broth microdilution checkerboard technique, the MIC and MBC values of peptide-antibiotics combinations against wild type and multidrug resistant bacterial strains were determined. Serial concentrations of peptide and each antibiotic were prepared in the range of 0.005–100 μM. In each well of a 96-well microtiter plate, 25 μL of each peptide concentration were added to 25 μL of each antibiotic concentration which is followed by adding 50 μL of diluted bacterial suspension (10^6 CFU/mL) to each well. The prepared concentrations of peptide and each antibiotic were arranged into rows and columns, respectively, in a 96-well microtiter plate according the checkerboard technique. Then as described previously (see Section 2.4.1), the procedure was followed. All MIC and MBC determinations of all assays were made in triplicate.
The fractional inhibitory concentration (FIC) is defined as the inhibitory concentration of the antimicrobial combination divided by that of the single antimicrobial component. To calculate FIC index for peptide-antibiotic combinations, the following equation was used:(1) FIC index=MIC of drug X in combination/MIC of drug X alone+MIC of drug Y in combination/MIC of drug Y alone
The FIC indices were interpreted as follows: ≤0.5: synergistic activity, 0.5–1: additive activity, 1–4 indifferent, >4: antagonism. Interpretation and assessment of the FIC indices were performed according to the broth microdilution checkerboard technique.

MIC Value [1]: 70 µM
MIC Value [2]: 55 µM
MIC Value [3]: 60 µM
MIC Value [4]: 65 µM
UP-5 MIC in Combination ([5]; UP-5 in combination with Ampicillin): 20 µM
UP-5 MIC in Combination ([5]; UP-5 in combination with Chloramphenicol): 10 µM
UP-5 MIC in Combination ([5]; UP-5 in combination with Erythromycin): 27.5 µM
UP-5 MIC in Combination ([5]; UP-5 in combination with Levofloxacin): 20 µM
UP-5 MIC in Combination ([5]; UP-5 in combination with Rifampicin): 25 µM
Compound: N=C(N)NCCC[C@H](NC(=O)[C@H](Cc1ccc(-c2ccccc2)cc1)NC(=O)[C@H](CCCNC(=N)N)NC(=O)[C@H](Cc1ccc(-c2ccccc2)cc1)NC(=O)[C@@H](N)CCCNC(=N)N)C(=O)O [UP-5] (H-R[Bip]R[Bip]R-OH)
MBC Value [1]: 70 µM
MBC Value [2]: 55 µM
MBC Value [3]: 60 µM
MBC Value [4]: 65 µM
